Laboratory results published in patent US10464963B2, “Compounds from invasive Salvinias and methods of using the same” (STEPHEN F. AUSTIN STATE UNIVERSITY, priority 2013, dated 2019).
Read-outs that look alike come from different tables or passages of the source.

Key:
[1] = test system: human exocrine pancreatic cancer (BxPC-3); test: Cytotoxicity assay (WST-8), BxPC-3; format: cell-based; conditions: Homo sapiens
human leukemia (HL-60) = test: Cytotoxicity assay (WST-8), HL-60; format: cell-based; conditions: Homo sapiens
[2] = test system: human exocrine pancreatic cancer cells (BxPC-3); test: Cell proliferation assay (CCK-8), BxPC-3; format: cell-based; conditions: 12, 24, 48, 72 h, FIG. 3
Description: (§1) CCK-8 (Dojindo Molecular, Maryland) was used to measure the proliferation response of salviniol (6) and montbretol (8) against human exocrine pancreatic cancer cell lines (PANC-1 and BxPC-3), according to the manufacturer's instructions. Cell were grown in growth medium plus 10% FBS and 5% antibiotics in 96-well plates and then were treated with various concentrations of test compounds and incubated for 12, 24, 48, and 72 h, respectively. The end of the incubation period, 10% CCK-8 solution was added to the wells. After 2 h incubation, the absorbance at 450 nm was measured. A calibration curve was prepared using the absorbance observed known numbers of viable cells.

[3] = test system: human breast cancer (MDA-MB-231); test: cells; format: cell-based
Source text: Human exocrine pancreatic cancer (PANC-1 and BxPC-3), non-small cell lung cancer (A549), prostate cancer (PC-3), breast cancer (MDA-MB-231), and leukemia (HL-60) were obtained from The University of Texas M. D. Anderson Cancer Center, Houston, Tex., and Normal human lung fibroblasts cells (MRC-5) was purchased from the American Type Culture Collection (ATCC). PC-3, A549 and HL-60 cells were maintained in RPMI 1640 medium supplemented with 10% (v/v) fetal bovine serum and antibiotics (1,000 units/mL penicillin-streptomycin solution, Hyclone). PANC-1 and MRC-5 was cultured in complete growth medium according to the ATCC protocols. Cells were grown at 37° C. and 5% CO2 in humidified air.
(§2) Cytotoxicity of total extracts of S. molesta was tested against PANC-1, A549, PC-3, and MRC-5. Cytotoxicity of the fractions was determined using A549 cells, a human non-small lung cancer cell line. Fractions were tested at 25, 50, and 100 μg/mL. The isolated pure compounds were tested in each of the cultured human tumor and normal cell lines at various concentrations between 1 and 100 μM with three replications. Human tumor and normal cells were inoculated into 96 well microtiter plates in 90 μL at plating densities ranging from 5,000 to 40,000 cells/well (measured by Z2 Coulter Counter of Beckman) depending on the doubling time of individual cell lines. Cell growth and viability was measured by WST-8 (Water Soluble Tetrazolium) assays following a standard protocol (Cell Counting Kit-8, Dojindo Molecular, Maryland). The WST-8 assay measured the relative activity of mitochondrial reductase enzymes in viable cells. A control WST reading (T0) before treatment was measured, then cells were continuously exposed to isolates for 48 h. After WST added and incubated for 2 h, the amount of formazan was measured by using a microplate spectrophotometer (μQuant spectrophotometer, Bio-Tek Instruments, Inc., Vermont) at 450 nm. TC or TD represents the readings of the untreated control or with tested compounds. Percent cell-growth (G) and percent cell-growth inhibition (GI) was calculated as: G=(TD−T0/TC−T0)×100; GI=[1−(TD−T0/TC−T0)]×100 for which TD≥T0; and G=(TD−T0/T0)×100; GI=[1−(TD−T0/T0)]×100 for which TD≤T0. To determine the inhibitory potency of active compounds (GI50, 50% cell-growth inhibition), tests were extended to additional concentrations (varying from 0.01 to 100 μM). Cancer drug doxorubicin was used as the positive controls in the cell-based assays.

[4] = test system: human exocrine pancreatic cancer (PANC-1); test: Cytotoxicity assay (WST-8), PANC-1; format: cell-based; conditions: Homo sapiens
Description: (§3) PANC-1 and MRC-5 was cultured in complete growth medium according to the ATCC protocols. Cells were grown at 37° C. and 5% CO2 in humidified air.
as §2, with “To determine the inhibitory potency of active compounds (GI50, 50% cell-growth inhibition), tests were extended to additional concentrations (varying from 0.01 to 100 μM).” left out

[5] = test system: human prostate cancer (PC-3); test: Cytotoxicity assay (WST-8), PC-3; format: cell-based; conditions: Homo sapiens
Description: as §3
as §2, with “To determine the inhibitory potency of active compounds (GI50, 50% cell-growth inhibition), tests were extended to additional concentrations (varying from 0.01 to 100 μM).” left out

[6] = test system: human exocrine pancreatic cancer cells (PANC-1); test: Cell proliferation assay (CCK-8), PANC-1; format: cell-based; conditions: 12, 24, 48, 72 h, FIG. 3
Description: as §1

[7] = test system: normal human lung fibroblasts cells (MRC-5); test: Cytotoxicity assay (WST-8), MRC-5; format: cell-based
Description: as §3
as §2, with “To determine the inhibitory potency of active compounds (GI50, 50% cell-growth inhibition), tests were extended to additional concentrations (varying from 0.01 to 100 μM).” left out

[8] = test system: human non-small cell lung cancer (A549); test: Cytotoxicity assay (WST-8), A549; format: cell-based; conditions: Homo sapiens
Description: as §3
as §2, with “To determine the inhibitory potency of active compounds (GI50, 50% cell-growth inhibition), tests were extended to additional concentrations (varying from 0.01 to 100 μM).” left out

[9] = Cytotoxicity assay (WST-8), MRC-5; format: cell-based, human; conditions: human
Description: as §3
as §2, with “To determine the inhibitory potency of active compounds (GI50, 50% cell-growth inhibition), tests were extended to additional concentrations (varying from 0.01 to 100 μM).” left out

[10] = BXPC-3, Table 1, read-out: Activity against human exocrine pancreatic tumor BxPC-3 (GI50) (converted)
[11] = PANC-1, Table 1, read-out: Activity against human exocrine pancreatic tumor PANC-1 (GI50)
[12] = A549, Table 1, read-out: Activity against human non-small cell lung tumor A549 (GI50) (converted)

Q: With `CC(C)c1cc2c(cc1O)[C@@]1(C)CCCC(C)(C)[C@@H]1C[C@H]2CC1=CCC(O)(C(C)C)CC1` (stereo partly drawn) [Compound 6, 7-(menth-1-en-4-ol)-ferruginol] as the compound, how does the GI50 ([1]; BXPC-3, 48 h, read-out: Cytotoxic activity (GI50) BxPC-3) read?
A: 87.3 ± 24.5 µM

Q: What about the GI50 [1, 10] of the same compound?
A: 87.3 µM

Q: And the GI50 (human leukemia (HL-60); HL-60, 48 h, read-out: Cytotoxic activity (GI50) HL-60)?
A: 48.1 ± 10.9 µM

Q: What about the GI50 (human leukemia (HL-60); HL-60, Table 1, read-out: Activity against human leukemia HL-60 (GI50) (converted)) of the same compound?
A: 48.1 µM

Q: And the “Effect on proliferation of BxPC-3 cells (in words)” value [2]?
A: inhibit human pancreatic cancer cell proliferation in a dose-dependent manner

Q: And the GI50 ([3]; MDA-MB-231, 48 h, read-out: Cytotoxic activity (GI50) MDA-MB-231)?
A: 75 ± 1.37 µM

Q: What about the GI50 ([3]; MDA-MB-231, Table 1, read-out: Activity against human breast tumor MDA-MB-231 (GI50)) of the same compound?
A: 75 µM

Q: What about the GI50 ([4]; PANC-1, 48 h, read-out: Cytotoxic activity (GI50) PANC-1) of the same compound?
A: 60.4 ± 16.2 µM

Q: And the GI50 [4, 11]?
A: 60.4 µM

Q: And the GI50 ([5]; 48 h, read-out: Cytotoxic activity (GI50) PC-3)?
A: 54.2 ± 5.9 µM

Q: What about the GI50 ([5]; Table 1, read-out: Activity against human prostate tumor PC-3 (GI50) (converted)) of the same compound?
A: 54.2 µM

Q: What about the “Effect on proliferation of PANC-1 cells (in words)” value [6] of the same compound?
A: inhibit human pancreatic cancer cell proliferation in a dose-dependent manner

Q: And the GI50 ([7]; human, 48 h)?
A: 58.4 ± 6.83 µM

Q: What about the GI50 ([8]; A549, 48 h, read-out: Cytotoxic activity (GI50) A549) of the same compound?
A: 62.9 ± 9.63 µM

Q: What about the GI50 [8, 12] of the same compound?
A: 62.9 µM

Q: For `CC(C)c1cc2c(cc1O)[C@@]1(C)CCCC(C)(C)C1=C(O)C2=O` [Compound 8, montbretol], which GI50 [1, 10] is on record?
A: 25 µM

Q: What about the GI50 ([1]; BXPC-3, Table 7, WST-8, 48 h exposure, mean ± S.D., read-out: Cytotoxic activity (GI50) BxPC-3) of the same compound?
A: 25 ± 13.2 µM

Q: And the GI50 (human leukemia (HL-60); HL-60, Table 7, WST-8, 48 h exposure, mean ± S.D., read-out: Cytotoxic activity (GI50) HL-60)?
A: 11.5 ± 3.13 µM

Q: What about the “Effect on proliferation of BxPC-3 cells (in words)” value [2] of the same compound?
A: inhibit human pancreatic cancer cell proliferation in a dose-dependent manner

Q: What about the GI50 [4, 11] of the same compound?
A: 23.1 µM

Q: What about the GI50 ([4]; PANC-1, Table 7, WST-8, 48 h exposure, mean ± S.D., read-out: Cytotoxic activity (GI50) PANC-1) of the same compound?
A: 23.1 ± 9.16 µM

Q: What about the GI50 ([5]; Table 7, WST-8, 48 h exposure, mean ± S.D., read-out: Cytotoxic activity (GI50) PC-3) of the same compound?
A: 13.2 ± 2.03 µM

Q: What about the “Effect on proliferation of PANC-1 cells (in words)” value [6] of the same compound?
A: inhibit human pancreatic cancer cell proliferation in a dose-dependent manner

Q: What about the GI50 at 48 h [9] of the same compound?
A: 20 µM

Q: What about the “Toxicity against normal cell (in words)” value [7] of the same compound?
A: no toxic against normal cell

Q: And the GI50 [8, 12]?
A: 11.1 µM

Q: And the GI50 ([8]; A549, Table 7, WST-8, 48 h exposure, mean ± S.D., read-out: Cytotoxic activity (GI50) A549)?
A: 11.1 ± 3.16 µM
